Measurements published in patent US20090092975A1, “SELECTABLE MARKER” (Mologic Ltd, priority 2005, published 2009).

How the values were obtained:
[1] = Table 1, monocarboxylic weak acids; cited from earlier work
[2] = system: Saccharomyces cerevisiae strain 62 expressing PAD1; format: cell-based; conditions: predicted decarboxylation product in headspace; weak acid 0.5 mM, YEPD pH 4, 10 h at 28° C.; 0 = no decarboxylation
Description: S. cerevisiae strain 62 (which expresses the PAD1 gene) was cultured for 48 hr in YEPD pH 4, Yeast extract 10 g, Peptone 20 g, Glucose 20 g, at 28° C. in a shake flask, 120 rpm. The stationary-phase cells were inoculated into capped 28 ml McCartney bottles containing 10 mls YEPD pH 4, at 1 million cells per ml. Each bottle also contained one of 70 substrate weak acids at 0.5 mM. Tubes were then shaken for 10 h at 28° C.
1 ml samples of the headspace were passed into stainless-steel thermal desorption tubes, followed by a 10 ml air flush. (Desorption tubes—89 mm×5 mm ID, packed with 200 mg Tenax TA 60-80 mesh, Phase Separations, UK).
Thermal desorption tubes were placed in a Perkin Elmer ATD400 thermal desorption system, and the volatiles transferred to the Gas Chromatograph in a 2 stage process. Primary desorption was 250° C. for 10 min with a helium flow of […]. Using a split ratio of 1:1, volatiles were retained on a cold trap (25 mg Tenax TA) held at −30° C. Secondary desorption was carried out by rapidly heating and holding the cold trap at 250° C. for 2 min, with a helium flow of 20 ml/min and split ratio of 19:1. A DB624 column {30 m×0.32 mm, 1.8 microns film thickness} installed in a Carbo Erba GC800 was used to achieve separation and introduction of the volatile to the mass spectrometer. The column temperature was held at 40° C. for 2 min then increased at 5° C./min to 250° C. The column outlet was coupled via a heated transfer line at 250° C. into the ion source of the mass spectrometer operated at 70 eV in electron ionization (EI) mode. The source temperature was at 200° C. and the detector photomultiplier at 500V. Full scan MS data acquisition was carried out from m/z 30 to 300, with 0.6 sec scan and 0.05 sec inter scan delay.
The results are shown in Table 3, in each case the “predicted product” being the product which would be produced if decarboxylation of the weak acid were to take place.

| Compound | Pka [1] | GCMS Peak area [2] |
| --- | --- | --- |
| O=C(O)C1(C(=O)O)CC1 [1,1-Cyclopropanedicarboxylic acid] | 3.114 | – |
| O=C(O)C1=CCCCC1 [1-Cyclohexene-1-carboxylic acid] | 3.7528 | – |
| O=C(O)C1=CCCC1 [1-Cyclopentene-1-carboxylic acid] | 3.7528 | – |
| CC1(C(=O)O)CC1 [1-Methyl-cyclopropane carboxylic acid] | 5.1 | – |
| CCC(C)(C)C(=O)O [2,2-Dimethylbutyric acid] | 5.03 | – |
| O=C(O)C=Cc1ccc(F)c(F)c1F [2,3,4-Trifluoro-cinnamic acid] | – | 0 |
| COc1ccc(C=CC(=O)O)c(OC)c1OC [2,3,4-Trimethoxy-cinnamic acid] | – | 0 |
| O=C(O)C=Cc1ccc(F)cc1F [2,4-Difluoro-cinnamic acid] | – | 35698 |
| COc1ccc(C=CC(=O)O)c(OC)c1 [2,4-Dimethoxy-cinnamic acid] | – | 30 |
| O=C(O)C=Cc1ccccc1Br [2-Bromo-cinnamic acid] | – | 2912 |
| CC#CC(=O)O [2-Butynoic acid] | 2.6546 | – |
| O=C(O)C=Cc1ccccc1C(=O)O [2-Carboxy-cinnamic acid] | – | 0 |
| O=C(O)C=Cc1ccccc1Cl [2-Chloro-cinnamic acid] | – | 4911 |
| C=C(Cl)C(=O)O [2-Chloroacrylic acid] | 2.6975 | – |
| O=C(O)c1ccccc1Cl [2-Chlorobenzoic acid] | 2.89 | – |
| CC(Cl)C(=O)O (centres unmarked) [2-Chloropropionic acid] | 2.897 | – |
| O=C(O)CC1C=CCC1 (centres unmarked) [2-Cyclopentene-1-acetic acid] | 4.61 | – |
| CCOc1ccccc1C=CC(=O)O [2-Ethoxycinnamic acid] | – | 193 |
| CCC(CC)C(=O)O [2-Ethylbutyric acid] | 4.71 | – |
| O=C(O)C=Cc1ccccc1F [2-Fluoro-cinnamic acid] | – | 3760 |
| O=C(O)c1ccco1 [2-Furoic acid] | 3.13 | – |
| COc1ccccc1C=CC(=O)O [2-Methoxy-cinnamic acid] | – | 128 |
| Cc1ccccc1C=CC(=O)O [2-Methyl-cinnamic acid] | – | 18046 |
| CC1CC1C(=O)O (centres unmarked) [2-Methyl-cyclopropane carboxylic acid] | 4.8 | – |
| CCCC(C)C(=O)O (centres unmarked) [2-Methylvaleric acid] | 4.79 | – |
| O=C(O)C=Cc1ccccc1[N+](=O)[O-] [2-Nitro-cinnamic acid] | – | 0 |
| O=C(O)c1ccccc1[N+](=O)[O-] [2-Nitrobenzoic acid] | 2.47 | – |

| Compound | Pka [1] | GCMS Peak area [2] |
| --- | --- | --- |
| CC(C(=O)O)c1ccccc1 (centres unmarked) [2-Phenylpropionic acid] | 4.0606 | – |
| O=C(O)C=Cc1ccccc1C(F)(F)F [2-Trifluoromethyl-cinnamic acid] | – | 1440 |
| CC(C)(C)CC(=O)O [3,3-Dimethylbutyric acid] | 4.961 | – |
| O=C(O)C=Cc1cccc(Br)c1 [3-Bromo-cinnamic acid] | – | 248 |
| O=C(O)c1cccc(Cl)c1 [3-Chlorobenzoic acid] | 3.81 | – |
| O=C(O)CCCl [3-Chloropropionic acid] | 3.8924 | – |
| O=C(O)C=Cc1cccc(Cl)c1 [3-Choro-cinnamic acid] | – | 907 |
| O=C(O)C1CC=CCC1 (centres unmarked) [3-Cyclohexene-1-carboxylic acid] | 4.593 | – |
| O=C(O)CCC1CCCC1 [3-Cyclopentylpropionic acid] | 4.81 | – |
| CCCCCCC=CCC(=O)O [3-Decenoic acid] | 4.728 | – |
| O=C(O)C=Cc1cccc(F)c1 [3-Fluoro-cinnamic acid] | – | 14027 |
| CCCC=CCC(=O)O [3-Heptenoic acid] | 4.7696 | – |
| COc1cccc(C=CC(=O)O)c1 [3-Methoxy-cinnamic acid] | – | 178 |
| Cc1cccc(C=CC(=O)O)c1 [3-Methyl-cinnamic acid] | – | 8195 |
| CCC(C)CC(=O)O (centres unmarked) [3-Methylvaleric acid] | 4.7868 | – |
| O=C(O)C=Cc1cccc([N+](=O)[O-])c1 [3-Nitro-cinnamic acid] | – | 0 |
| O=C(O)c1cccc([N+](=O)[O-])c1 [3-Nitrobenzoic acid] | 3.46 | – |
| CCCCC=CCC(=O)O [3-Octenoic acid] | 4.7926 | – |
| O=C(O)C=Cc1cccc(C(F)(F)F)c1 [3-Trifluoromethyl-cinnamic acid] | – | 946 |
| O=C(O)C=Cc1ccc(C=CC(=O)O)cc1 [3-[4-(2-Carboxy-vinyl)-phenyl]-acrylic acid] | – | 0 |
| O=C(O)C=Cc1ccc(Br)cc1 [4-Bromo-cinnamic acid] | – | 1038 |
| O=C(O)C=Cc1ccc(Cl)cc1 [4-Choro-cinnamic acid] | – | 12391 |
| CN(C)c1ccc(C=CC(=O)O)cc1 [4-Dimethylamino-cinnamic acid] | – | 0 |
| CCc1ccc(C(=O)O)cc1 [4-Ethylbenzoic acid] | 4.35 | – |
| CC(C)CCC(=O)O [4-Methylvaleric acid] | 4.8689 | – |
| C=CCCC(=O)O [4-Pentenoic acid] | 4.6364 | – |
| C#CCCC(=O)O [4-Pentynoic acid] | 4.1342 | – |

| Compound | Pka [1] | GCMS Peak area [2] |
| --- | --- | --- |
| O=C(O)CCCc1ccccc1 [4-Phenylbutyric acid] | 4.76 | – |
| C=CCCCCC(=O)O [6-Heptenoic acid] | 4.81 | – |
| C#CCCCCC(=O)O [6-Heptynoic acid] | 4.71 | – |
| CC(C)=CCC[C@@H](C)CC(=O)O [(R)(+)Citronellic acid] | 4.752 | – |
| CC(C)c1ccc(C(=O)O)cc1 [Cumic acid] | 4.35 | – |
| O=C(O)C1CCCCCC1 [Cycloheptanecarboxylic acid] | 4.9518 | – |
| O=C(O)CC1CCCCCC1 [Cycloheptylacetic acid] | 4.822 | – |
| O=C(O)CCCC1CCCCC1 [Cyclohexanebutyric acid] | 4.9061 | – |
| O=C(O)CC1CCCCC1 [Cyclohexylacetic acid] | 4.8806 | – |
| O=C(O)C1CCCC1 [Cyclopentanecarboxylic acid] | 4.8 | – |
| O=C(O)CC1CCCC1 [Cyclopentylacetic acid] | 4.76 | – |
| O=C(O)CC1CC1 [Cyclopropylacetic acid] | 4.8873 | – |
| C=C(C)C(=O)O [Methacrylic acid] | 4.61 | – |
| O=C(O)COc1ccccc1 [Phenoxyacetic acid] | 3.17 | – |
| O=C(O)Cc1ccccc1 [Phenylacetic acid] | 4.31 | – |
| C#CC(=O)O [Propiolic acid] | 2.39 | – |
| O=C(O)c1ccsc1 [Thiophene-3-carboxylic acid] | 4.08 | – |
| C/C=C(\C)C(=O)O [Tiglic acid] | 4.4564 | – |
| CCCCCCCCCCC(=O)O [Undecanoic acid] | 5.03 | – |
| COc1cc(C(=O)O)ccc1O [Vanillic acid] | 4.51 | – |
| C=CCC(=O)O [Vinylacetic acid] | 4.51 | – |
| O=C(O)/C=C\Cl [cis-3-Chloroacrylic acid] | 3.2506 | – |
| COc1cccc(C(=O)O)c1 [m-Anisic acid] | 4.09 | – |
| Cc1ccccc1C(=O)O [o-Toluic acid] | 3.98 | – |
| O=C(O)/C=C/Cl [trans-3-Chloroacrylic acid] | 3.2506 | – |
| C/C=C/CC(=O)O [trans-3-Pentenoic acid] | 4.36 | – |
